Results as given in patent publication US10039756B2, “Reducing memory loss in mammals suffering from alzheimer's disease” (The Penn State Research Foundation, priority 2013, dated 2018).

Assays:
[1] = biological target: T1, GAT-3 (Mus musculus, UniProt P31650); experiment: Tonic GABA current, whole-cell patch clamp in dentate granule cells of hippocampal slices, GAT-3 block; assay type: cell-based; details: 50 μM; AD (5xFAD) dentate granule cells
T1 construct: from tissue; host or cells: mouse hippocampal slices (5xFAD and WT littermates), dentate gyrus
T1 sequence (P31650 1-627): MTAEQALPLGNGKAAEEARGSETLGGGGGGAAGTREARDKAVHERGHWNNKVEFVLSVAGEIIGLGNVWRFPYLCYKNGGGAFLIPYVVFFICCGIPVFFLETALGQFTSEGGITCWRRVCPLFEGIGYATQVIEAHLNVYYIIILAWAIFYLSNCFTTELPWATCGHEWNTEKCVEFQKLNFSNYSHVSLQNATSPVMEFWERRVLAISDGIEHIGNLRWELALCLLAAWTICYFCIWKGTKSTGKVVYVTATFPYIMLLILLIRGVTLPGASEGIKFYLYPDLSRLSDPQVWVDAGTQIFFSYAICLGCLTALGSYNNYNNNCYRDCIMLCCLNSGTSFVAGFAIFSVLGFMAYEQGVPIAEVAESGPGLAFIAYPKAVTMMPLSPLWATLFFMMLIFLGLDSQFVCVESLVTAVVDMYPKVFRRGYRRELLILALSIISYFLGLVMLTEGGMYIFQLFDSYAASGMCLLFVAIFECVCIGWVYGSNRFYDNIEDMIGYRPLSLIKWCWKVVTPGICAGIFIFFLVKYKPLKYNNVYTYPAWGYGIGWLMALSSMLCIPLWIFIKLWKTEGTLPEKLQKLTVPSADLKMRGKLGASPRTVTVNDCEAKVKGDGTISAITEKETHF
Description: Mice were anesthetized with 2.5% Avertin. After decapitation, brains were rapidly dissected out and placed in ice-cold cutting solution containing: 79 mM NaCl, 80 mM sucrose, 26 mM NaHCO3, 10 mM glucose, 2.5 mM KCl, 1.25 mM NaH2PO4, 7 mM MgSO4, and 0.5 mM CaCl2 for tonic current recordings. The cutting solution for field EPSP recordings contained: 230 mM sucrose, 26 mM NaHCO3, 20 mM glucose, 2.5 mM KCl, 1.25 mM NaH2PO4, 10 mM MgSO4, and 0.5 mM CaCl2. Both solutions were bubbled with 95% O2/5% CO2. […]
Whole-cell voltage clamp recordings were performed on dentate gyrus granule cells using a pipette solution containing: 135 mM CsCl, 5 mM Na-phosphocreatine, 10 mM HEPES, 5 mM EGTA, 4 mM MgATP, 5 mM QX-314, and 0.5 mM Na2GTP (pH 7.3 adjusted with CsOH, 280-290 mOsm/L). […] Data was acquired using pClamp 9 software (Molecular Devices; sampled at 10 kHz and filtered at 1 kHz), and analyzed with Clampfit 9.0 software (Molecular Devices). Field excitatory postsynaptic potentials (fEPSPs) were recorded with glass electrodes filled with 1 M NaCl and 25 mM HEPES (pH 7.3), and were evoked every 20 seconds with a parallel bipolar tungsten electrode (MicroProbes, USA), which was placed at medial perforant path in the dentate gyrus. […]

[2] = system: 5xFAD mice; experiment: Y-maze spontaneous alternation task; assay type: in vivo, mouse; details: 50 μmol kg-1, i.p., once per day for one week, p<0.05
Description: L-655,708 was dissolved at 1 mg/mL in DMSO, and frozen in storage aliquots. The working solution was diluted 10 times in normal saline solution. […] The last injection was administrated 30 minutes before behavioral test.
Spontaneous alternation performance was tested as described elsewhere (Oakley et al., J. Neurosci., 26(40):10129-10140 (2006)). […] It allows the assessment of hippocampus-dependent spatial working memory. Each mouse was placed in the center of a symmetrical Y-maze and was allowed to explore freely through the maze during an 8 minute session. The first two minutes were not included for data analysis because mice were exploring new environment. The total number and the sequence of arm entries in the last 6 minutes were recorded and analyzed. Arm entry was defined as the hind paws of the mice had been completely placed in the arm. Analysis was done blind. The percentage of alternation is the number of triads containing entries into all three arms divided by the maximum possible alternations (the total number of arms entered minus 2)×100.
A behavioral analysis was conducted to test the effect of enhanced tonic inhibition on the cognitive function of 5xFAD animals. […] Therefore, it was concluded that the abnormal tonic inhibition in DG is an important contributing factor toward the learning and memory deficit in AD.

## COc1ccc(C(OCCN2CCC[C@H](C(=O)O)C2)(c2ccc(OC)cc2)c2ccc(OC)cc2)cc1 [SNAP-5114, (S)-1-[2-[tris(4-methoxyphenyl)methoxy]ethyl]-3-piperidinecarboxylic acid]
[1]
  block of tonic GABA current: blocked the majority of the tonic GABA current
[2]
  effect on memory deficit (spontaneous alternation): rescued the memory deficit
